Like-named read-outs stand apart in the source and are kept apart here.
Assays:
Assay type in all cases: cell-based
HIV-1 LAI = assay: anti-HIV-1 activity: replication of HIV-1 LAI on CEM-SS cells
Experimental: The CEM-SS and the HIV-1 resistant to Nevirapine (N119) carrying a point mutation at codon 181 of the IT, were supplied respectively by P. NARA and D. RICHMAN through the intermediary of the AIDS Research and Reference Reagent Program, Division of AIDS, NIAID, NIH (USA) (Catalogue references : No. 776 and No. 1392).
The virus production was measured by quantifying the activity of the inverse transcriptase associated with viral particles released into the culture supernatant. In short, cells were infected with 100 TCID50 for 30 minutes; after adsorption of the virus, unbound particles were removed by two washings and the cells were cultivated in the presence of different concentrations of the compounds tested for 5 days before determining the viral production. The concentration inhibiting 50% of the viral multiplication (IC50) came from the computer plot of the median effect of the dose effect results (Chou et al. Elsevier Science Publishers, Cambridge U.K. (1985), 19-28).

[1] = cytotoxicity on non-infected cells (MTT test); conditions: human; Table 2; non-infected CEM-SS cells, MTT, 5 days
Experimental: In parallel experiments, the cytotoxicity of the molecules was measured on non-infected cells, after an incubation of 5 days in the presence of these molecules, by using a […] titration (MTT test) based on the ability of the mitochondrial dehydrogenases of the living cells to reduce 3-(4,5-dimethylthiazol-2-yl)-2,5-diphenyltetrazolium bromide in formazan (Mosmann et al. J. Immunol. Methods ([…]), 65, 55-63). The concentration cytotoxic at 50% (CC50) is the concentration at which the DO540 has been reduced to half and is calculated by using the program mentioned above.

isolated virion HIV-1LAI = assay: infectivity of the isolated virion after treatment with inhibitors (HT4LacZ cells)
Experimental: H9 cells chronically infected with HIV-1LAI (10^8 /ml) were cocultivated with MT4 cells (10^8 /ml) for 48 hours in an RMPI medium supplemented by 10% of calf foetal serum (CFS). The cells were then removed by centrifugation and then the supernatant liquid was filtered (0.45 μm) to remove residual cells and cell debris.
After having been incubated with the various inhibitors, the viral supernatants (200 μl) were deposited in the filtering part of a VectaSpin tube (WHATMAN) fitted with an ANAPORE membrane of porosity 0.02 μm. For 10 minutes they were subjected to centrifugation, the acceleration of which reached 6000 g at the filtering membrane. The viral residuums thereby obtained (10-15 μl ) were washed 3 times under the same conditions with 500 μl of RPMI then restored to their initial volumes with RPMI containing 10% of CFS.
The HT4LacZ-1 cells were kept in a DMEM medium (glucose 4.5 g/l) supplemented with 10% of calf foetal serum in the presence of Gentamycin (50 mg/l). These cells stemmed from Hela cells in which had been cloned, on the one hand the gene coding for the human CD4 so as to render them susceptible to infection by the HIV (Chesebro and Wehrly, 1988, J. Virol., 62, 3779-3788), and on the other hand the gene for β-Galactosidase which, placed under the dependent of the LTR of the HIV-1 served as a marker for the viral infection (Rocancourt et al. (1990) J. Virol. 1990 64-6, 2660-2688). When the virus infects such cells after its integration into the cellular genome, the production of the regulatory protein TAT activates the LTR of the HIV. The result is an activation of the gene of β-Galactosidase which leads to its production in the intracellular medium and more particularly in the nucleus. It is this protein that serves as a marker of the infection.
The evening of day 0, the HT4LacZ-1 cells were diluted at the rate of 75000 cells per ml of medium. 100 μl of this suspension was then distributed over a flat bottomed plate with 96 wells and was cultivated overnight at 37° C. (5% of CO2).
The morning of day 1, the supernatant liquid was removed by aspiration. Each well was then complemented with 200 μl of the viral supernatant dilutions to be tested. Each dilution was made in a DMEM medium (glucose 4.5 g/l) supplemented with 10% of CFS. The plates were then placed in an environment at 37° C. in the presence of 5% of CO2.
After 48 hours of culture, the supernatant liquid was aspirated, then each well was washed 3 times in PBS before being complemented with 200 μl of developing buffer (Tris-HCl 50 mM pH=8.5, ONPG 5 mg/ml β-mercapto-ethanol 7 μl/ml Triton×100 0.05%). After 4 hours of incubation at 37° C., the optical density of each well was measured.
The concentration of each of the inhibitors of the IT of the HIV-1 was adjusted to 50 mM in DMSO. The later dilutions were carried out on RPMI 1640. 2 μl of suitable dilutions of each of these inhibitors were added to 198 μl of a freshly unfrozen viral suspension. After 3 hours of incubation at ambient temperature, these suspensions were filtered on 0.02 μ VecraSpin tubes, then washed 3 times with 500 μl of RPMI 1640. The viral residuums were then adjusted to 200 μL with the culture medium (RPMI-10% CFS), then tested with regard to their infectivity on HT4LacZ cells.

[2] = Human immunodeficiency virus 1, 120 h, Table 2, HIV-1 LAI, CEM-SS cells, 5 days, read-out: IC50, anti-HIV-1 activity
[3] = Table 2, HIV-1 LAI, CEM-SS cells
[4] = Human immunodeficiency virus 1, 3 h, read-out: Activity of the isolated virions after treatment
[5] = Human immunodeficiency virus 1, 1 μM inhibitor, 3 h, 100 TCID50, compared with viral supernatant subjected to same treatments, mean of 1 to 4 experiments, read-out: Activity of the isolated virions after treatment
[6] = Human immunodeficiency virus 1, 10 μM inhibitor, 3 h, 100 TCID50, compared with viral supernatant subjected to same treatments, mean of 1 to 4 experiments, read-out: Activity of the isolated virions after treatment

Row | SMILES | IC50 (HIV-1 LAI; [2]) [µM] | SI (selectivity index) (HIV-1 LAI; [3]) | CC50 at 120 h [1] [µM] | also measured
1 | Cc1cn([C@H]2C[C@H](N=[N+]=[N-])[C@@H](CO)O2)c(=O)[nH]c1=O [AZT, reference compound] | 0.003 | > 33333 | > 100 | IC50 (HIV-1 LAI; Human immunodeficiency virus 1, CEM-SS, Table 4, HIV-1 (LA1)/CEMSS, read-out: IC50): 0.00084 µM; activity at 1 µM (isolated virion HIV-1LAI; [4]): 99%; activity at 10 µM (isolated virion HIV-1LAI; [4]): 99%; activity on the isolated virion (in words) (isolated virion HIV-1LAI): totally inactive
2 | Nc1ccn([C@@H]2CS[C@H](CO)O2)c(=O)n1 [Compound 3TC] | – | – | – | activity at 1 µM (isolated virion HIV-1LAI; [5]): 100%; activity at 10 µM (isolated virion HIV-1LAI; [6]): 100%; activity on the isolated virion (in words) (isolated virion HIV-1LAI): totally inactive
3 | Cc1cnc(O)c([N+](=O)[O-])c1Sc1ccccc1 [Compound 7d, 5-methyl-3-nitro-4-phenylthio-pyridin-2(1H)-one] | > 10 | – | > 10 | –
4 | CCOCc1c[nH]c(=O)c([N+](=O)[O-])c1Sc1cc(C)cc(C)c1 [Compound 7g, 5-ethoxymethyl-3-nitro-4-(3', 5'-dimethylphenyl)thio-pyridin-2(1H)-one] | 0.005 | > 2000 | > 10 | –
5 | CCOCc1c[nH]c(=O)c(N)c1Sc1cc(C)cc(C)c1 [Compound 8g, 3-amino-5-ethoxymethyl-4-(3', 5'-dimethylphenyl)thio-pyridin-2(1H)-one] | 0.02 | > 500 | > 10 | –
6 | Cc1cc(C)nc(Sc2c(C)c[nH]c(=O)c2[N+](=O)[O-])n1 [Compound 9a, 5-methyl-3-nitro-4-(4', 6'-dimethylpyrimidin-2-yl)thiopyridin-2(1H)-one] | 17.5 | > 1 | 19.5 | –
7 | Cc1cc(O)nc(Sc2c(C)cnc(O)c2[N+](=O)[O-])n1 [Compound 9b, 5-methyl-3-nitro-4-(4'-hydroxy-6'-methylpyrimidin-2-yl)thiopyridin-2(1H)-one] | > 100 | – | > 100 | –
8 | Cc1c[nH]c(=O)c([N+](=O)[O-])c1Sc1nc2ccccc2[nH]1 [Compound 9c, 5-methyl-3-nitro-4-(benzimidazol-2-yl)thiopyridin-2(1H)-one] | 43.5 | > 1 | 54.5 | –
9 | Cc1c[nH]c(=O)c([N+](=O)[O-])c1Sc1nc2ccccc2o1 [Compound 9d, 5-methyl-3-nitro-4-(benzoxazol-2-yl)thiopyridin-2(1H)-one] | 5.5 | > 2 | 16 | –
10 | Cc1cnc(O)c([N+](=O)[O-])c1Sc1nc2ccccc2s1 [Compound 9e, 5-methyl-3-nitro-4-(benzothiazol-2-yl)thio-pyridin-2(1H)-one] | 14.5 | – | 13.5 | –
11 | Cc1c[nH]c(=O)c([N+](=O)[O-])c1SC1=NCCS1 [Compound 9f, 5-methyl-3-nitro-4-(thiazolin-2-yl) thio-pyridin-2(1H)-one] | 17 | > 1 | 21.5 | –
12 | Cc1c[nH]c(=O)c([N+](=O)[O-])c1Sc1nccn1C [Compound 9g, 5-methyl-3-nitro-4-(N-methylimidazol-2-yl)thio-pyridin-2(1H)-one] | 56 | > 1 | 68.5 | –
13 | Cc1c[nH]c(=O)c([N+](=O)[O-])c1Sc1ccccn1 [Compound 9h, 5-methyl-3-nitro-4-(2-pyridyl) thio-pyridin-2(1H)-one] | 18 | > 1 | 28.5 | –
14 | Cc1cnc(O)c(N)c1Sc1nc2ccccc2o1 [Compound 10, 3-amino-5-methyl-4-(benzoxazol-2-yl)thio-pyridin-2(1H)-one] | 8 | – | 7.5 | –
15 | Cc1cc(C)cc(Sc2c(C)c[nH]c(=O)c2NC=O)c1 [Compound 11a, 3-formamido-5-methyl-4-(3', 5'-dimethylphenyl)thio-pyridin-2(1H)-one] | 6.6 | > 15 | > 100 | –
16 | CCCCCCC(=O)Nc1c(Sc2cc(C)cc(C)c2)c(C)c[nH]c1=O [Compound 11d, 3-heptanamido-5-methyl-4-(3', 5'-dimethylphenyl)thio-pyridin-2(1H)-one] | > 10 | – | > 10 | –
17 | Cc1cc(C)cc(Sc2c(C)cnc(O)c2NC(=O)Cc2ccccc2)c1 [Compound 11e, 5-methyl-3-phenylacetamido-4-(3', 5'-dimethylphenyl)thio-pyridin-2(1H)-one] | > 10 | – | > 10 | –
18 | CCOC(=O)Nc1c(Sc2cc(C)cc(C)c2)c(C)c[nH]c1=O [Compound 11f, 5-methyl-3-N-ethoxycarbamoyl-4-(3', 5'-dimethylphenyl)thio-pyridin-2(1H)-one] | 7.5 | > 13 | > 100 | –
19 | Cc1ccnc2c1NC(=O)c1cccnc1N2C1CC1 [Nevirapine] | – | – | – | activity at 0.1 µM (isolated virion HIV-1LAI; Human immunodeficiency virus 1, 0.1 μM inhibitor, 3 h, 100 TCID50, compared with viral supernatant subjected to same treatments, mean of 1 to 4 experiments, read-out: Activity of the isolated virions after treatment): 86%; activity at 1 µM (isolated virion HIV-1LAI; [5]): 86%; activity at 10 µM (isolated virion HIV-1LAI; [6]): 111%; activity on the isolated virion (in words) (isolated virion HIV-1LAI): totally inactive
20 | Cc1cn([C@H]2C=C[C@@H](CO)O2)c(=O)[nH]c1=O [d4T] | – | – | – | activity at 1 µM (isolated virion HIV-1LAI; [4]): 130%; activity at 10 µM (isolated virion HIV-1LAI; [4]): 127%; activity on the isolated virion (in words) (isolated virion HIV-1LAI): totally inactive
21 | O=c1[nH]cnc2c1ncn2[C@H]1CC[C@@H](CO)O1 [ddl] | – | – | – | activity at 1 µM (isolated virion HIV-1LAI; [5]): 100%; activity at 10 µM (isolated virion HIV-1LAI; [6]): 100%; activity on the isolated virion (in words) (isolated virion HIV-1LAI): totally inactive

From patent US6015820A, “4-Aryl-thio-pyridin-2(1H)-ones, medicines containing them and their uses in the treatment of illnesses linked to HIV” (priority 1995, dated 2000)
